{"source": "patent US6469028B1", "about": "“Synthesis and use of retinoid compounds having negative hormone and/or anatgonist activities” (Allergan, Inc., priority 1995, dated 2002)", "key": {"rabbits": {"tested_on": "rabbits", "assay": "Example 24: rabbit model of proliferative vitreoretinopathy (PVR)", "type": "in vivo"}, "RARγ": {"molecular_target": "T1, RARγ (Homo sapiens, UniProt P13631)", "T1 sequence (P13631 1-454)": "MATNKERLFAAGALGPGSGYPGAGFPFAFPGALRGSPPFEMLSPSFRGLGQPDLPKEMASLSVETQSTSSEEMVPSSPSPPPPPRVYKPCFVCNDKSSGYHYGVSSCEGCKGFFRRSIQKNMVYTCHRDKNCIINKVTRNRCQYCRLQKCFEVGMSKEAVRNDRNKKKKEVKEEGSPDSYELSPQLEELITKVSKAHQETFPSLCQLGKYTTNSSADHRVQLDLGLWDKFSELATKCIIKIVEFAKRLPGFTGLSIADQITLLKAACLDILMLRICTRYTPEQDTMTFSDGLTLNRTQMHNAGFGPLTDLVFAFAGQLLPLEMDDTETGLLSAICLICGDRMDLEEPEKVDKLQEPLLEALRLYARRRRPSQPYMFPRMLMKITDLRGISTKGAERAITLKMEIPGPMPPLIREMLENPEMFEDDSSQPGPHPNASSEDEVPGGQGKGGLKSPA", "assay": "Transactivation in CV-1 cells, ΔMTV-TREp-Luc reporter", "type": "cell-based", "parameters": "expressed in transfected cells; host or cells: green monkey CV-1 cells", "settings": "10^−9 to 10^−6 M, 18 hours"}, "RARβ": {"molecular_target": "T2, RARβ (Homo sapiens, UniProt P10826)", "T2 sequence (P10826 1-448 isoform P10826-2)": "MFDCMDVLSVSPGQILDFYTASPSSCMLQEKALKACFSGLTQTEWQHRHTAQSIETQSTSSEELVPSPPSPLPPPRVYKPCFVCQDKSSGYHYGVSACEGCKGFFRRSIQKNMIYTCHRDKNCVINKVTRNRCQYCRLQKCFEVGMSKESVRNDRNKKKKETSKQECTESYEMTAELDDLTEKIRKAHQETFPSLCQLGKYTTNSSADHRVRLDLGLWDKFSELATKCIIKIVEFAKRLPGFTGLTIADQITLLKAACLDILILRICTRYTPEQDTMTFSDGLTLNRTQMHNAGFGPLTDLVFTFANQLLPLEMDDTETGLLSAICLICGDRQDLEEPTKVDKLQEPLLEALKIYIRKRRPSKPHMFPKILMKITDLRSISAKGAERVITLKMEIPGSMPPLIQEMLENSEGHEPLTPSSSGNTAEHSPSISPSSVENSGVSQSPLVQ", "assay": "[3H]-ATRA displacement assay, baculovirus expressed receptor", "type": "binding", "parameters": "made in house; host or cells: baculovirus expression system", "settings": "Table 11"}, "ER-RAR-β": {"tested_on": "ER-RAR-β", "assay": "Example 10: repression of basal gene activity, ERE-tk-Luc, CV-1 cells", "type": "cell-based", "settings": "10^−9 to 10^−6 M, 18 hours, single agent", "source_text": "(§1) More specifically, these procedures employed the ER-RAR chimeric receptor and ERE-tk-Luc reporter system. The ERE-tk-Luc plasmid includes the region −397 to −87 of the estrogen responsive 5′-flanking region of the Xenopus vitellogenin A2 gene, described by Klein-Hitpass, et al. in Cell 46:1053-1061 (1986), ligated upstream of the HSV thymidine kinase promoter and luciferase reporter gene of plasmid tk-Luc. The ER-RAR chimeric receptors consisted of the estrogen receptor DNA binding domain fused to the “D-E-F” domain of the RARs. Those having ordinary skill in the art appreciate this “D-E-F” domain functions to bind retinoid, to provide a retinoid inducible transactivation function and to provide a contact site for heterodimerization with RXR. Thus, luciferase expression in this reporter system was dependent on activation of the transfected chimeric receptor construct.\n(§2) CV-1 cells were co-transfected with the ERE-tk-Luc reporter plasmid and either ER-RAR-α, ER-RAR-β or ER-RAR-γ expression plasmids. The ERE-tk-Luc plasmid contained the estrogen-responsive promoter element of the Xenopus laevis vitellogenin A2 gene and was substantially identical to the reporter plasmid described by Klein-Hitpass et al. in Cell 46:1053 (1986), except that the CAT reporter gene was substituted by a polynucleotide sequence encoding luciferase. The ER-RAR-α, ER-RARβ and ER-RAR-γ chimeric receptor-encoding polynucleotides employed in the co-transfection have been described by Graupner et al. in Biochem. Biophys. Res. Comm. 179:1554 (1991). […] Calcium phosphate transfections were carried out exactly as described in Example 6 using 0.5 μg/well of reporter plasmid and either 0.05 μg, 0.10 μg or 0.2 μg/well of receptor plasmid. […] Cell lysates and luciferase activity measurements were performed as described in Example 6."}, "ER-RAR-α": {"tested_on": "ER-RAR-α", "assay": "Example 10: repression of basal gene activity, ERE-tk-Luc, CV-1 cells", "type": "cell-based", "settings": "10^−9 to 10^−6 M, 18 hours, single agent", "source_text": "as §1, §2"}, "ER-RAR-γ": {"tested_on": "ER-RAR-γ", "assay": "Example 10: repression of basal gene activity, ERE-tk-Luc, CV-1 cells", "type": "cell-based", "settings": "10^−9 to 10^−6 M, 18 hours, single agent", "source_text": "as §1, §2"}, "[1]": {"molecular_target": "T3, RAR-α and RXR-α with DR-5 RARE probe (Homo sapiens, UniProt P10276)", "T3 construct": "made in house; host or cells: reticulocyte lysate in vitro transcription-translation", "T3 sequence (P10276 whole entry)": "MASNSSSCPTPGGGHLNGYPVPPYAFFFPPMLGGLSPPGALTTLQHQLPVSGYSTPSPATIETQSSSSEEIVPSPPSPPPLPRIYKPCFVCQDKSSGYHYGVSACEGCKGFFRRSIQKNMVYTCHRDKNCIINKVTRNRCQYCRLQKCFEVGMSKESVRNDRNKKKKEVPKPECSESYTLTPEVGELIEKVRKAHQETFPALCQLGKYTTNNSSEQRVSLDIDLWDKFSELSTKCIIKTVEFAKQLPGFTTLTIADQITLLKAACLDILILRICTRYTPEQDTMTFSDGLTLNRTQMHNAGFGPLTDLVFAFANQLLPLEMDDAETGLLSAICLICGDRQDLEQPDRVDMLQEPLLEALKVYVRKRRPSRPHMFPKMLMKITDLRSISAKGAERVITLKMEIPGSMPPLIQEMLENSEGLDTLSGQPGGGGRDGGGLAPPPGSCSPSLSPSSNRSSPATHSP", "T3 sequence (P19793 whole entry partner)": "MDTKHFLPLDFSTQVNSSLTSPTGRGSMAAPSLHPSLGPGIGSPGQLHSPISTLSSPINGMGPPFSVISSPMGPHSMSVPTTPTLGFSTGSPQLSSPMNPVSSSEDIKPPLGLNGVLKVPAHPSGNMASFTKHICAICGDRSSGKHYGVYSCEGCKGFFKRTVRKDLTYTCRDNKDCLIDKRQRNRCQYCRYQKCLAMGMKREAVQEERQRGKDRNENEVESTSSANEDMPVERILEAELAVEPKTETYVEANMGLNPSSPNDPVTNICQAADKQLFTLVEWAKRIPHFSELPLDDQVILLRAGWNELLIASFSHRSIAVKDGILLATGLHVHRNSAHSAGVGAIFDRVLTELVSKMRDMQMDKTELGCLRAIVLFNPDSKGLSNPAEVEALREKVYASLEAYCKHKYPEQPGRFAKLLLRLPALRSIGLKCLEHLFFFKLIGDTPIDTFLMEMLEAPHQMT", "assay": "Example 9: gel shift analysis", "type": "biochemical", "settings": "prebound with AGN 193109 (10^−6 M)", "source_text": "In vitro translated RAR-α was produced essentially as described under Example 8, except that ^35S-labeled methoinine was omitted. In vitro translated RXR-α was similarly produced using a pBluescript(II)(SK)-based vector containing the RXR-α cDNA described by Mangelsdorf, et al. in Nature 345:224-229 (1990) as the template for generating in vitro transcripts. […] The binding mixture was electrophoresed on a non-denaturing polyacrylamide gel and autoradiographed according to standard laboratory procedures. A single retarded species appearing on the autoradiograph that was common to all the lanes on the gel represented an undefined probe-binding factor present in the reticulocyte lysate. Only the RAR/RXR combination gave rise to a retinoid receptor-specific retarded species. Neither RAR alone nor RXR alone bound the probe to produce this shifted species."}, "hairless mice": {"tested_on": "hairless mice", "assay": "Example 2: skin irritation and weight loss by oral agonist, topical antagonist", "type": "in vivo", "protocol": "Mice were simultaneously treated topically on the dorsal skin with vehicle (97.6% acetone/2.4% dimethylsulfoxide) or solutions of AGN 193109 in vehicle (6 ml/kg). Specific doses for the different treatment groups are give in Table 8. Treatments were administered daily for 4 consecutive days. Mice were weighed and graded for topical irritation daily as described in Example 1 up to and including 1 day after the last treatment. Percent body weight change is calculated by subtracting […], dividing by initial body weight, and multiplying by 100%. Topical irritation scores are calculated as described in Example 1."}, "[2]": {"settings": "group E: topical AGN 193109 0.47 mg/kg/d alone"}}, "data": [{"smiles": "Cc1ccc(C2=CCC(C)(C)c3ccc(C#Cc4ccc(C(=O)O)cc4)cc32)cc1", "note": "[Compound 60, 4-[(5,6-dihydro-5,5-dimethyl-8-(4-methylphenyl)-2-naphthalenyl)ethynyl]benzoic acid]", "values": [{"measurement": "frequency and severity of tractional retinal detachment", "setting": "rabbits; AGN 193109 100 μg + retinoic acid 10 μg intravitreal", "value": "significantly reduced frequency and severity of retinal detachment"}, {"measurement": "incidence and severity of retinal detachment", "setting": "rabbits; second study, AGN 193109 100 μg + thyroid hormone 100 μg", "value": "significantly reduced incidence and severity of retinal detachment"}, {"measurement": "retinal detachment compared with control rabbits", "setting": "rabbits; second study, single agent 100 μg intravitreal", "value": "does not inhibit retinal detachment"}, {"measurement": "EC50 (nM) RAR-γ", "setting": "RARγ", "value": "No Activity"}, {"measurement": "Kd", "setting": "RARβ", "value": 2, "unit": "nM"}, {"measurement": "luciferase reporter activity", "setting": "ER-RAR-β", "value": "dose responsive decrease in luciferase reporter activity"}, {"measurement": "luciferase reporter activity", "setting": "ER-RAR-α", "value": "substantially unaffected"}, {"measurement": "luciferase reporter activity", "setting": "ER-RAR-γ", "value": "dose responsive decrease in luciferase reporter activity"}, {"measurement": "RAR/RXR retarded species on DR-5 RARE probe", "setting": "[1]", "value": "did not diminish this interaction"}, {"measurement": "Topical Irritation Score", "setting": "hairless mice; group C: topical AGN 193109 […] + oral AGN 191183 0.26 mg/kg/d", "value": "1 ± 1"}, {"measurement": "% Weight Gain or (Loss)", "setting": "hairless mice; group C: topical AGN 193109 […] + oral AGN 191183 0.26 mg/kg/d, parentheses = loss", "value": "(9 ± 5) %"}, {"measurement": "Topical Irritation Score", "setting": "hairless mice; group D: topical AGN 193109 0.47 mg/kg/d + oral AGN 191183 0.26 mg/kg/d", "value": "0 ± 1"}, {"measurement": "% Weight Gain or (Loss)", "setting": "hairless mice; group D: topical AGN 193109 0.47 mg/kg/d + oral AGN 191183 0.26 mg/kg/d, parentheses = loss", "value": "(3 ± 5) %"}, {"measurement": "% Weight Gain or (Loss)", "setting": "hairless mice; [2]", "value": "3 ± 3", "unit": "%"}, {"measurement": "Topical Irritation Score", "setting": "hairless mice; [2]", "value": "0 ± 0"}]}]}
